Test results published in US20180333382A1, “PHARMACEUTICAL COMPOSITIONS COMPRISING DGLA AND USE OF SAME” (DS Biopharma Limited, priority 2017, published 2018).

Tested on: patients with moderate to severe atopic dermatitis
Test: Phase II study of oral DS107G vs placebo: IGA, EASI, SCORAD, pruritus VAS, BSA, POEM, DLQI
Format: in vivo, human
Design: key to EASI, Actual, Median / EASI, Actual, Mean: EASI composite score, range 0-72
Conditions: for Percentage Change of BSA Levels From Baseline, Mean / Percentage Change of DLQI Scores From Baseline, Mean / Percentage Change of EASI Scores From Baseline, Mean / Percentage Change of IGA Scores From Baseline, Mean / Percentage Change of POEM Scores From Baseline, Mean / Percentage Change of SCORAD Levels From Baseline, Mean / Percentage Change of VAS Scores From Baseline, Mean: ITT Population
Protocol: A randomized, double-blind, placebo-controlled, phase II study was performed to assess the efficacy and safety of orally administered DS107G (DGLA) to patients with moderate to severe atopic dermatitis. The primary objective of the study was to compare the efficacy of orally administered DS107G capsules, versus placebo, in the treatment of adult patients with moderate to severe atopic dermatitis. The secondary objective was to assess the safety of orally administered DS107G capsules, versus placebo, in adult patients with moderate to severe atopic dermatitis. The primary study endpoint was the proportion of patients achieving an IGA (Investigator Global Assessment) of 0 (clear) or 1 (almost clear) and a decrease of at least 2 points in IGA at week 8. Secondary study endpoints included:
Approximately 100 patients with moderate to severe atopic dermatitis were included in this multicenter, double-blind, placebo controlled, phase IIa study. All subjects signed an informed consent and underwent screening for study eligibility. Subjects were randomized (1:1) at baseline visit to either receive oral DS107G 2 g or placebo, once daily for 8 weeks in a fasting state.
Subjects visited the clinic on 6 occasions: at screening, baseline, week 2, week 4, week 8 (end of treatment/early termination) and week 10 (follow-up). All subjects exited the study at the week 10 visit. The primary efficacy variable was the proportion of patients achieving an IGA of 0 (clear) or 1 (almost clear), and a decrease of at least 2 points in IGA at week 8. Secondary efficacy variables included: IGA at other visits, pruritus (obtained from the SCORAD visual analog scale), EASI, BSA, POEM, DLQI, SCORAD and TEWL (for selected sites only). Safety was assessed through adverse events, physical examination, vital signs and safety laboratory tests (including pregnancy tests for women of childbearing potential). Pharmacokinetic samples were obtained at Baseline (Day 0), week 4 and week 8 visits in order to measure total and free DGLA plasma trough levels. Separate plasma samples were retained for later analysis of total fatty acid profile and interleukin profile.
The EASI is a composite score ranging from 0-72 that takes into account the degree of erythema, induration/papulation, excoriation, and lichenification (each scored from 0 to 3 separately) for each of four body regions, with adjustment for the percent of BSA involved for each body region and for the proportion of the body region to the whole body. A detailed procedure of EASI score calculation is provided below.
SCORAD is calculated as follows: Six items (erythema, edema/papulation, oozing/crusts, excoriation, lichenification, and dryness) are selected to evaluate the AD severity. The intensity of each item is graded using a 4-point scale: • 0=No symptoms • 1=Mild • 2=Moderate • 3=Severe
Investigator's global assessment is determined as follows:
Body Surface Area (BSA). The overall BSA affected by AD will be evaluated (from 0 to 100%) at each visit. One patient's palm represents 1% of his/her total BSA. For all study visits, except at screening, the BSA of involved skin will be measured with the SCORAD measurement and evaluated as a separate endpoint.
The Patient-Oriented Eczema Measure (POEM) is determined using the following questionnaire:
The Dermatology Life Quality Index (DLQI) is determined using the following questionnaire:
Subjects who fulfilled all the inclusion and none of the exclusion criteria were accepted in the study. Each subject read and signed an informed consent form prior to any screening procedures being performed. This study involved a comparison of DS107G (DGLA) with placebo, administered orally once daily upon waking for a total duration of 8 weeks. Subjects were randomized to one of the two treatment groups in a 1:1 ratio:
The Investigator's Global Assessment (IGA) of Disease Severity was assessed at each visit. The IGA is a global assessment of the current state of the disease. […]

[1] = DS107 Phase 2a I.T.T. population, daily, 8 weeks
[2] = Table 9A: title Week 4, head Week 8/ET, n=34
[3] = Table 9A: title Week 4, head Week 8/ET, n=35
[4] = Week 8, ITT total population, N=51
[5] = Week 8, ITT, Moderate at baseline
[6] = Week 8, ITT, Very Severe/Severe at baseline
[7] = Week 8/ET, DS107G 2 g once daily, n=35
[8] = total study population, oral, once daily, 8 weeks

**Q.** Which results are given for `CCCCC/C=C\C/C=C\C/C=C\CCCCCCC(=O)O` [DS107G, Dihomo gamma linolenic acid]?
**A.** patients classified as Responders (IGA 0 or 1 at Week 8, 2-point decrease) (African America patients): 56%; patients classified as Responders (IGA 0 or 1 at Week 8, 2-point decrease) (Caucasian patients): 7%; BSA Change from Baseline [1]: −38%; EASI Percentage Change from Baseline [1]: −46%; EASI-50 (%) [1]: 57%; EASI-75 (%) [1]: 37%; IGA responder (%) [1]: 21%; Pruritus Percentage Change from Baseline [1]: −41%; Percentage Change of BSA Levels From Baseline, Mean (Week 2): −6.3%; Percentage Change of DLQI Scores From Baseline, Mean (Week 2): −29.5%; Percentage Change of EASI Scores From Baseline, Mean (Week 2): −15.0%; Percentage Change of IGA Scores From Baseline, Mean (Week 2): −11.7%; Percentage Change of POEM Scores From Baseline, Mean (Week 2): −30.2%; Percentage Change of SCORAD Levels From Baseline, Mean (Week 2): −12.0%; Percentage Change of VAS Scores From Baseline, Mean (Week 2): −20.9%; Percentage Change of BSA Levels From Baseline, Mean (Week 4): −21.9%; Percentage Change of DLQI Scores From Baseline, Mean (Week 4): −50.3%; Percentage Change of EASI Scores From Baseline, Mean (Week 4): −37.7%; Percentage Change of IGA Scores From Baseline, Mean (Week 4): −25.7%; Percentage Change of POEM Scores From Baseline, Mean (Week 4): −41.8%; Percentage Change of SCORAD Levels From Baseline, Mean (Week 4): −28.8%; Percentage Change of VAS Scores From Baseline, Mean (Week 4): −39.5%; Percentage Change of BSA Levels From Baseline, Mean (Week 8): −38.2%; Percentage Change of DLQI Scores From Baseline, Mean (Week 8): −43.2%; Percentage Change of EASI Scores From Baseline, Mean (Week 8): −45.6%; Percentage Change of IGA Scores From Baseline, Mean (Week 8): −38.4%; Percentage Change of POEM Scores From Baseline, Mean (Week 8): −37.2%; Percentage Change of SCORAD Levels From Baseline, Mean (Week 8): −36.1%; Percentage Change of VAS Scores From Baseline, Mean (Week 8): −41.0%; Percentage Change of BSA Levels From Baseline, Mean (Week 10): −37.7%; Percentage Change of DLQI Scores From Baseline, Mean (Week 10): −53.6%; Percentage Change of EASI Scores From Baseline, Mean (Week 10): −49.5%; Percentage Change of IGA Scores From Baseline, Mean (Week 10): −37.5%; Percentage Change of POEM Scores From Baseline, Mean (Week 10): −43.4%; Percentage Change of SCORAD Levels From Baseline, Mean (Week 10): −40.5%; Percentage Change of VAS Scores From Baseline, Mean (Week 10): −44.2%; primary end point (two point drop in IGA and end of treatment IGA of 0 or 1) vs placebo (ITT analysis, p=0.057): clinically significant trend; visual analog scale of pruritus, Change from baseline, LSMEANS [2]: −2.1; visual analog scale of pruritus, Change from baseline, Mean [2]: −2.8; visual analog scale of pruritus, Change from baseline, Median [2]: −2.0; visual analog scale of pruritus, Percent Change from Baseline, Mean [2]: −41.0%; visual analog scale of pruritus, Percent Change from Baseline, Median [2]: −35.3%; visual analog scale of pruritus, Actual, Mean [3]: 4.6; visual analog scale of pruritus, Actual, Median [3]: 4.0; visual analog scale of pruritus, Change from baseline, LSMEANS (Table 9B: Week 8/ET, n=34): −2.1; visual analog scale of pruritus, Change from baseline, Mean (Table 9B: Week 8/ET, n=34): −2.8; visual analog scale of pruritus, Change from baseline, Median (Table 9B: Week 8/ET, n=34): −2.0; visual analog scale of pruritus, Percent Change from Baseline, Mean (Table 9B: Week 8/ET, n=34): −41.0%; visual analog scale of pruritus, Percent Change from Baseline, Median (Table 9B: Week 8/ET, n=34): −35.3%; visual analog scale of pruritus, Actual, Mean (Table 9B: Week 8/ET, n=35): 4.6; visual analog scale of pruritus, Actual, Median (Table 9B: Week 8/ET, n=35): 4.0; IGA score 0—Clear [4]: 4 ( 7.8) n (%); IGA score 1—Almost Clear [4]: 7 ( 13.7) n (%); IGA score 2—Mild [4]: 9 ( 17.6) n (%); IGA score 3—Moderate [4]: 10 ( 19.6) n (%); IGA score 4—Severe [4]: 4 ( 7.8) n (%); IGA score 5—Very Severe [4]: 1 ( 2.0) n (%); Non-Responders [4]: 37 ( 72.5) n (%); Responders (decrease of at least 2 points in IGA score at Week 8) [4]: 14 ( 27.5) n (%); IGA score 0—Clear [5]: 4 (13.8) n (%); IGA score 1—Almost Clear [5]: 4 (13.8) n (%); IGA score 2—Mild [5]: 6 (20.7) n (%); IGA score 3—Moderate [5]: 4 (13.8) n (%); IGA score 4—Severe [5]: 1 (3.4) n (%); IGA score 5—Very Severe [5]: 0 (0.0) n (%); Non-Responders [5]: 21 (72.4) n (%); Responders [5]: 8 (27.6) n (%); IGA score 0—Clear [6]: 0 (0.0) n (%); IGA score 1—Almost Clear [6]: 3 (13.6) n (%); IGA score 2—Mild [6]: 3 (13.6) n (%); IGA score 3—Moderate [6]: 6 (27.3) n (%); IGA score 4—Severe [6]: 3 (13.6) n (%); IGA score 5—Very Severe [6]: 1 (4.5) n (%); Non-Responders [6]: 16 (72.7) n (%); Responders [6]: 6 (27.3) n (%); EASI, Actual, Mean [7]: 9.3; EASI, Actual, Median [7]: 7.4; EASI, Change from baseline, LSMEANS (ANCOVA) [7]: −8.0; EASI, Change from baseline, Mean [7]: −9.4; EASI, Change from baseline, Median [7]: −8.0; EASI, Percent Change from Baseline, Mean [7]: −45.6%; EASI, Percent Change from Baseline, Median [7]: −62.7%; SCORAD, Change from baseline, LSMEANS (Week 8/ET, n=34): −18.7; SCORAD, Change from baseline, Mean (Week 8/ET, n=34): −21.1; SCORAD, Change from baseline, Median (Week 8/ET, n=34): −21.2; SCORAD, Percent Change from Baseline, Mean (Week 8/ET, n=34): −36.1%; SCORAD, Percent Change from Baseline, Median (Week 8/ET, n=34): −43.4%; SCORAD, Actual, Mean (Week 8/ET, n=35): 35.9; SCORAD, Actual, Median (Week 8/ET, n=35): 28.6; body surface area affected by atopic dermatitis, Actual, Mean (Week 8/ET, n=35): 17.6; body surface area affected by atopic dermatitis, Actual, Median (Week 8/ET, n=35): 12.0; body surface area affected by atopic dermatitis, Change from baseline, LSMEANS (Week 8/ET, n=35): −8.9; body surface area affected by atopic dermatitis, Change from baseline, Mean (Week 8/ET, n=35): −9.6; body surface area affected by atopic dermatitis, Change from baseline, Median (Week 8/ET, n=35): −8.0; body surface area affected by atopic dermatitis, Percent Change from Baseline, Mean (Week 8/ET, n=35): −38.2%; body surface area affected by atopic dermatitis, Percent Change from Baseline, Median (Week 8/ET, n=35): −50.0%; response rate in subjects having low baseline eosinophil counts (in vivo): higher response rate; primary end point (two point drop in IGA and end of treatment IGA of 0 or 1) vs placebo (moderate patient subgroup (n=67), p=0.036): statistically significant improvement; EASI (% decrease) [8]: 46%; IGA responders (%) [8]: 22%; Pruritus delta (as measured by VAS) [8]: 41%; Pruritus score decrease (as measured by VAS) [8]: c. (2.8); SCORAD (% decrease) [8]: 36%; pruritus score [visual analog scale] vs placebo (within four weeks of dosing, p=0.015): statistically significant reduction of itch
